Read-outs that look alike come from different tables or passages of the source.
Legend:
[1] = molecular target: PI3K-δ (PI3K(p1108/p857) (h)) (Homo sapiens, UniProt O00329); assay: Evaluation of inhibitory activity against PI3K-δ (HTRF kinase assay); assay type: biochemical; details: for inhibition at 0.01 µM: compound concentration 0.01 μM, read-out: EXP_VALUE(% Inhibition) PI3K-δ 0.01 μM; for inhibition at 0.1 µM: read-out: EXP_VALUE(% Inhibition) PI3K-δ 0.1 μM
Outline: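 HTRF read-out (665/620 nm ratio ×10000) used Eu-labelled anti-GST, GST-tagged GRP1 PH domain and streptavidin-allophycocyanin after EDTA/PIP3 stop.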

DNA-PK(h) = DNA-PK(h) (Homo sapiens, UniProt P78527); assay: Evaluation of inhibitory activity against DNA-PK (HTRF kinase assay, GST-cMyc-p53 substrate); assay type: biochemical; details: for inhibition at 0.01 µM: compound concentration 0.01 μM, read-out: EXP_VALUE(% Inhibition) DNA-PK(h) 0.01 μM; for inhibition at 0.1 µM: read-out: EXP_VALUE(% Inhibition) DNA-PK(h) 0.1 μM
Outline: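 Human DNA-PK with 50 μM GST-cMyc-p53 substrate; reaction started with Mg/ATP, run 30 min at room temperature, stopped with EDTA. Phospho-Ser15 p53 detected by HTRF (Eu anti-phospho-Ser15, d2 anti-GST), signal = 10000×(Em 665/Em 620).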

Sequence of PI3K-δ (PI3K(p1108/p857) (h)) (O00329 whole entry, the tested form may be a part): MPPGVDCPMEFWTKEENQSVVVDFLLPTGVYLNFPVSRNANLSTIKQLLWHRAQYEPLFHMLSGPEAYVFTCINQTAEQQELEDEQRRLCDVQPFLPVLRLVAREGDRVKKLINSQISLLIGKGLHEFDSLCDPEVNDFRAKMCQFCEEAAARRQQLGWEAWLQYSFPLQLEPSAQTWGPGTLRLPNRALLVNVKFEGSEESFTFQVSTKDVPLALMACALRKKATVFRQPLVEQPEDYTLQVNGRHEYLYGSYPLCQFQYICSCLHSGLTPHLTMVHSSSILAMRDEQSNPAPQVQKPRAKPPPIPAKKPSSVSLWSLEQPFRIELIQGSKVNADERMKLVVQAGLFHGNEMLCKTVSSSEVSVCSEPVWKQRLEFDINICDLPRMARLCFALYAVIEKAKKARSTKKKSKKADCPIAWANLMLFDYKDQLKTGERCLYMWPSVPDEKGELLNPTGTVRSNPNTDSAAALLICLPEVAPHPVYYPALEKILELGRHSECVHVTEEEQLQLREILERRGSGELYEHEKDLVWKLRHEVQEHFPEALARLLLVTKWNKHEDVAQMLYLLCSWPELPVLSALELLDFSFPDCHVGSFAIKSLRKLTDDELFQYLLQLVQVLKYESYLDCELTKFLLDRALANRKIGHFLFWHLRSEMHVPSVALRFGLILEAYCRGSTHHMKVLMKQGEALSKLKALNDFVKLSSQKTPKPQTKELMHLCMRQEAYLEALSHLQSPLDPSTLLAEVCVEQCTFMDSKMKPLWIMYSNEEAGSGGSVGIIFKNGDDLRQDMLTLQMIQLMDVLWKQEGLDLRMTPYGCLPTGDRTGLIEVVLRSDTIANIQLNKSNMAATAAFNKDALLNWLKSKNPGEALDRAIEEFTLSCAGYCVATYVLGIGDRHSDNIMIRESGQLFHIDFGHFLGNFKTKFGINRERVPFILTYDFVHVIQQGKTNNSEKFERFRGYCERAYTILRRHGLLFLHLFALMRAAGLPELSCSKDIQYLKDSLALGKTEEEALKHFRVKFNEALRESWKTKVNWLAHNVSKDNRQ
Sequence of PI3K-δ (PI3K(p1108/p857) (h)) (P27986 whole entry partner, the tested form may be a part): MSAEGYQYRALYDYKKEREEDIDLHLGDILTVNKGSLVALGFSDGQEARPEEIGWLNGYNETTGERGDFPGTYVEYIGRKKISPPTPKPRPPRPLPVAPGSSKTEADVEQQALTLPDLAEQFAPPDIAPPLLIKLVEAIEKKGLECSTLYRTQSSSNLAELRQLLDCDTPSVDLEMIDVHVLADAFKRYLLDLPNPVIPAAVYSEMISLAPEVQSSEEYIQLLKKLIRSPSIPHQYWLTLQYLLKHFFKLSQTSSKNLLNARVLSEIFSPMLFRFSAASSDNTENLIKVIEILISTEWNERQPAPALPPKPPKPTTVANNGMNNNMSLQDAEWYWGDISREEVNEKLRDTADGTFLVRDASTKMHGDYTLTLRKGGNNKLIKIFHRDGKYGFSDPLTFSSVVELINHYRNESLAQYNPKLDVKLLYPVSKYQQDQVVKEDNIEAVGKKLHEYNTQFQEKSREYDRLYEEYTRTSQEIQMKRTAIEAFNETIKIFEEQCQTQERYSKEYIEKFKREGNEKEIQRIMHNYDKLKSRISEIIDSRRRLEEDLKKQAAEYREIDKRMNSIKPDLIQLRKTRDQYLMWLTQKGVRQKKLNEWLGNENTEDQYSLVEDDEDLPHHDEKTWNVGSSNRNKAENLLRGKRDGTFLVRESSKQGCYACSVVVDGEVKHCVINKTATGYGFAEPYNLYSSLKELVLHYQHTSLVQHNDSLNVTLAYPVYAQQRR

Compound | inhibition at 0.01 µM [1] [%] | inhibition at 0.01 µM (DNA-PK(h)) [%] | inhibition at 0.1 µM ([1]; compound at 0.1 μM) [%] | inhibition at 0.1 µM (DNA-PK(h); compound at 0.1 μM) [%] | inhibition at 0.1 µM ([1]; compound concentration 0.1 μM) [%] | inhibition at 0.1 µM (DNA-PK(h); compound concentration 0.1 μM) [%]
C[C@H](Nc1ncnc2[nH]ccc(=O)c12)c1c(Cl)c2cccc(C(N)=O)c2c(=O)n1-c1ccccc1 [Example 291, (S)-4-chloro-1-oxo-3-(1-((5-oxo-5,8-dihydropyrido[2,3-d]pyrimidin-4-yl)amino)ethyl)-2-phenyl-1,2-dihydroisoquinoline-8-carboxamide] | 91 | 31 |  |  | 101 | 78
C[C@H](Nc1ncnc2[nH]ccc(=O)c12)c1c(Cl)c2cccc(/C(N)=N/O)c2c(=O)n1-c1ccccc1 [Example 350, (S,Z)-4-chloro-N′-hydroxy-1-oxo-3-(1-((5-oxo-5,8-dihydropyrido[2,3-d]pyrimidin-4-yl)amino)ethyl)-2-phenyl-1,2-dihydroisoquinoline-8-carboximidamide] | 109 | 15 |  |  | 117 | 55
C[C@H](Nc1ncnc2[nH]ccc(=O)c12)c1c(Cl)c2cccc(CO)c2c(=O)n1-c1ccccc1 [Example 355, (S)-4-((1-(4-chloro-8-(hydroxymethyl)-1-oxo-2-phenyl-1,2-dihydroisoquinolin-3-yl)ethyl)amino)pyrido[2,3-d]pyrimidin-5(8H)-one] | 78 | 47 |  |  |  | 
COc1ncc(-c2cccc3c(Cl)c([C@H](C)Nc4ncnc5[nH]ccc(=O)c45)n(-c4ccccc4)c(=O)c23)cn1 [Example 171, (S)-4-((1-(4-chloro-8-(2-methoxypyrimidin-5-yl)-1-oxo-2-phenyl-1,2-dihydroisoquinolin-3-yl)ethyl)amino)pyrido[2,3-d]pyrimidin-5(8H)-one] | 58 | 62 |  |  |  | 

Other lines, results leading:

inhibition at 0.01 µM [1] [%] | inhibition at 0.01 µM (DNA-PK(h)) [%] | inhibition at 0.1 µM ([1]; compound at 0.1 μM) [%] | inhibition at 0.1 µM (DNA-PK(h); compound at 0.1 μM) [%] | inhibition at 0.1 µM ([1]; compound concentration 0.1 μM) [%] | inhibition at 0.1 µM (DNA-PK(h); compound concentration 0.1 μM) [%] | Compound
73 | 44 |  |  |  |  | CC(C)c1ncncc1-c1cccc2c(Cl)c([C@H](C)Nc3ncnc4[nH]ccc(=O)c34)n(-c3ccccc3)c(=O)c12 [Example 215, (S)-4-((1-(4-chloro-8-(4-isopropylpyrimidin-5-yl)-1-oxo-2-phenyl-1,2-dihydroisoquinolin-3-yl)ethyl)amino)pyrido[2,3-d]pyrimidin-5(8H)-one]
 |  | 42 | 24 |  |  | C[C@H](Nc1ncnc2[nH]ccc(=O)c12)c1c(Cl)c2cccc(S(=O)(=O)c3nc[nH]n3)c2c(=O)n1-c1ccccc1 [Example 401, (S)-4-((1-(8-((1H-1,2,4-triazol-3-yl)sulfonyl)-4-chloro-1-oxo-2-phenyl-1,2-dihydroisoquinolin-3-yl)ethyl)amino)pyrido[2,3-d]pyrimidin-5(8H)-one]
13 | -7 |  |  |  |  | C[C@H](Nc1ncnc2[nH]ccc(=O)c12)c1c(Cl)c2cccc(Nc3ccc(F)cc3)c2c(=O)n1-c1ccccc1 [Example 344, (S)-4-((1-(4-chloro-8-((4-fluorophenyl)amino)-1-oxo-2-phenyl-1,2-dihydroisoquinolin-3-yl)ethyl)amino)pyrido[2,3-d]pyrimidin-5(8H)-one]
79 | 82 |  |  | 86 | 99 | C[C@H](Nc1ncnc2[nH]ccc(=O)c12)c1c(Cl)c2cccc(-c3ccc(N4CCOCC4)cc3)c2c(=O)n1-c1ccccc1 [Example 75, (S)-4-((1-(4-chloro-8-(4-morpholinophenyl)-1-oxo-2-phenyl-1,2-dihydroisoquinolin-3-yl)ethyl)amino)pyrido[2,3-d]pyrimidin-5(8H)-one]
